Source: patent US20110311445A1, “DIAGNOSIS AND TREATMENT OF MYELOID AND LYMPHOID CELL CANCERS” (MORPHOTEK, INC., priority 2003, published 2011)

Tests used:
[1] = test system: myeloid and lymphoid cancer cells; experiment: Binding of chlorotoxin and binding-domain peptides to lymphoid cancer cells (FACS, streptavidin-fluorescein); conditions: general statement; FACS on Raji, Daudi, Molt-4 cells (FIG. 1, 2)
Procedure: Raji (Epstein et al. (1966) J. Natl. Cancer Inst. 37, 547-559) and Daudi (Klein et al. (1968) Cancer Res. 28 1300-1310) cells were used either unfixed or fixed with one percent glutaraldehyde. The Raji cell line (ATCC CCL-86) is a B lymphocyte cell line derived from a Burkitt's lymphoma of a person. The Daudi cell line (ATCC CCL-213) is a B lymphoblast cell line derived from person. Cells were incubated with chlorotoxin or the designated binding domain peptide (SEQ ID NO: 8 or 10), washed then incubated with streptavidin-fluorescein (strp-FL). After another wash, cells were analyzed using a FACS analyzer and the percent of positive staining cells determined (FIG. 1). Controls included untreated cells, cells incubated with streptavidin-fluorescein alone and cells incubated with negative peptide.
Molt-4 cells (Minowada et al. (1972) J. Natl. Cancer Inst. 49, 891-895) were used either unfixed or fixed with one percent glutaraldehyde. The Molt-4 cell line is a T lymphoblast cell line derived from a patient in relapse. Cells were incubated with chlorotoxin or the designated binding domain peptide (SEQ ID NO: 8 or 10), washed then incubated with streptavidin-fluorescein (strp-FL). After another wash, cells were analyzed using a FACS analyzer and the percent of positive staining cells determined (FIG. 2). […]

Daudi cell line = experiment: Cell proliferation / cytotoxicity, CCK-8, chlorotoxin (TM-601) with or without doxorubicin; type: cell-based; conditions: in combination with doxorubicin; FIG. 4
Procedure: (§1) A tissue culture method was optimized to test the effects of chlorotoxin (TM-601) in the presence or absence of doxorubicin on Raji (FIG. 3) and Daudi (FIG. 4) cell lines. Cells were plated on 96-well microtiter tissue culture plates at a density of approximately 1000-2000 cells per well, depending on the specific cell line. Cells were allowed to adhere twenty-four hours in a 37° C., humidified cell culture incubator supplied with five percent carbon dioxide. In order to achieve a dose-response curve for each drug in each cell line, cells were treated with decreasing concentrations doxorubicin for two to five days. Following treatment, the cytotoxic effect of doxorubicin was quantified using the Cell Counting Kit-8 (CCK-8) (Dojindo Inc.) according to the manufacturer's instructions. In brief, following the treatment period with doxorubicin, cells were incubated with CCK-8 reagent and incubated at 37° C. for one to four hours, depending on the specific cell type. After incubation, plates were read on a microplate reader at a wavelength of 490 nm.

Raji cell line = experiment: as above; type: cell-based; conditions: in combination with doxorubicin; FIG. 3
Procedure: as §1

In the case of chlorotoxin, the “binding to myeloid and lymphoid cancer cells” value [1] is reported as “specifically and selectively bind”, the “effect on Daudi cell proliferation” value (Daudi cell line) is reported as “close-dependent synergistic effects” and the “effect on Raji cell proliferation” value (Raji cell line) is reported as “close-dependent synergistic effects”.
